Measured values as given in ChEMBL document CHEMBL1201862, “PubChem BioAssay data set” (2004).
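The compound was tested at five concentrations on cells cultured in 96-well plates, with a 48-hour exposure period. The concentration for 50% growth inhibition is given as GI50.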 Calls of active or inactive are those of the source. No stated cut-off is given here; in the data, active = GI50 up to about 1.1 µM and inactive = higher.

Experiments:
Assay in all cases: growth of human tumour cells (NCI), 48 h
MDA-N = test system: MDA-N
TK-10 = test system: TK-10
CCRF-CEM = test system: CCRF-CEM
SK-MEL-2 = test system: SK-MEL-2
SW-620 = test system: SW-620
COLO 205 = test system: COLO 205
OVCAR-8 = test system: OVCAR-8
SNB-75 = test system: SNB-75
HT-29 = test system: HT-29
UACC-62 = test system: UACC-62
SF-268 = test system: SF-268
ACHN = test system: ACHN
LOX IMVI = test system: LOX IMVI
HCT-116 = test system: HCT-116
786-0 = test system: 786-0
PC-3 = test system: PC-3
SK-MEL-28 = test system: SK-MEL-28
CAKI-1 = test system: CAKI-1
A498 = test system: A498
SR = test system: SR

Measured: GI50

O=C1CC(c2ccc(Cl)cc2)C2(C(=O)NC(=O)NC2=O)C(c2ccc(Cl)cc2)C1 (configuration not stated)
inactive: MDA-N 19.8 µM | TK-10 54.8 µM | CCRF-CEM 30.3 µM | SK-MEL-2 15.6 µM | SW-620 26.2 µM | COLO 205 20.2 µM | OVCAR-8 27.5 µM | SNB-75 49.5 µM | HT-29 23 µM | UACC-62 40.5 µM | SF-268 42.8 µM | ACHN 49 µM | LOX IMVI 31.4 µM | HCT-116 31.6 µM | 786-0 25.1 µM | PC-3 30.5 µM | SK-MEL-28 18.2 µM | CAKI-1 35.2 µM

C#CCN(C(=O)C(F)(F)F)C(/C=C\C(=O)OC)(C(=O)OCC)C(=O)OCC
inactive: MDA-N > 100 µM | TK-10 > 100 µM | CCRF-CEM > 100 µM | SK-MEL-2 > 100 µM | SW-620 > 100 µM | COLO 205 > 10 µM | OVCAR-8 > 100 µM | SNB-75 > 100 µM | HT-29 > 100 µM | UACC-62 > 100 µM | SF-268 > 100 µM | ACHN > 100 µM | LOX IMVI > 100 µM | 786-0 > 100 µM | A498 > 100 µM | PC-3 > 100 µM | SK-MEL-28 > 100 µM

O=C(NCCCN(CCCCN(CCCNC(=O)C(F)(F)F)Cc1ccc2ccccc2c1)Cc1ccc2ccccc2c1)C(F)(F)F
inactive: TK-10 > 100 µM | CCRF-CEM > 78.2 µM | SK-MEL-2 > 20 µM | SW-620 > 100 µM | COLO 205 1.95 µM | OVCAR-8 > 100 µM | SNB-75 > 100 µM | HT-29 1.44 µM | UACC-62 2.31 µM | SF-268 > 100 µM | ACHN > 100 µM | LOX IMVI 4.36 µM | HCT-116 4.45 µM | 786-0 > 100 µM | SR 2.7 µM | A498 > 100 µM | PC-3 6.95 µM | SK-MEL-28 2.32 µM

CCOC(=O)/C(=C\n1c(=O)sc2ccccc21)C(=O)c1ccccc1
inactive: CCRF-CEM > 100 µM | SK-MEL-2 > 100 µM | SW-620 > 100 µM | COLO 205 > 100 µM | OVCAR-8 > 100 µM | SNB-75 53.8 µM | HT-29 > 100 µM | UACC-62 > 100 µM | SF-268 > 100 µM | ACHN > 100 µM | LOX IMVI > 100 µM | HCT-116 > 100 µM | 786-0 > 100 µM | SR 58.7 µM | A498 > 100 µM | PC-3 > 100 µM | SK-MEL-28 > 100 µM | CAKI-1 25.4 µM

[O-][S+](CC1(O)CCCCC1)c1ccccc1 (configuration not stated)
inactive: TK-10 > 100 µM | CCRF-CEM > 100 µM | SK-MEL-2 > 100 µM | SW-620 > 100 µM | COLO 205 > 100 µM | OVCAR-8 > 100 µM | SNB-75 > 100 µM | HT-29 > 100 µM | UACC-62 > 100 µM | SF-268 > 100 µM | ACHN > 100 µM | LOX IMVI > 100 µM | HCT-116 > 100 µM | 786-0 > 100 µM | SR > 100 µM | PC-3 > 100 µM | SK-MEL-28 > 100 µM | CAKI-1 > 100 µM

CSc1nc(C)c(CCCl)c(Cl)n1
inactive: MDA-N 49.8 µM | TK-10 > 100 µM | CCRF-CEM 20.8 µM | SW-620 42.6 µM | COLO 205 35.2 µM | OVCAR-8 > 100 µM | SNB-75 > 100 µM | HT-29 > 100 µM | UACC-62 89.1 µM | SF-268 > 100 µM | ACHN > 100 µM | LOX IMVI 29.6 µM | HCT-116 36.6 µM | 786-0 > 100 µM | A498 > 100 µM | PC-3 > 100 µM | SK-MEL-28 > 100 µM | CAKI-1 > 100 µM

OC(CCNCc1ccccc1)c1ccc2ccccc2c1 (configuration not stated)
inactive: TK-10 18.3 µM | CCRF-CEM 1.68 µM | SK-MEL-2 20.5 µM | SW-620 19.7 µM | COLO 205 20.7 µM | OVCAR-8 23.3 µM | SNB-75 28.2 µM | HT-29 22.9 µM | UACC-62 19.3 µM | SF-268 18.9 µM | ACHN 18.3 µM | LOX IMVI 13.5 µM | HCT-116 22.4 µM | 786-0 20.1 µM | SR 35.6 µM | A498 19.4 µM | PC-3 20.3 µM | SK-MEL-28 18.4 µM | CAKI-1 21.8 µM

CN(C)C(=S)/N=c1\ss/c(=N\C(=S)N(C)C)n1-c1ccc(Cl)c(Cl)c1
inactive: TK-10 > 100 µM | CCRF-CEM > 100 µM | SK-MEL-2 > 100 µM | SW-620 > 100 µM | COLO 205 > 100 µM | OVCAR-8 > 100 µM | SNB-75 27.1 µM | HT-29 > 100 µM | UACC-62 30.9 µM | SF-268 > 100 µM | ACHN > 100 µM | LOX IMVI > 100 µM | HCT-116 > 100 µM | 786-0 > 100 µM | SR > 100 µM | A498 > 100 µM | SK-MEL-28 > 100 µM | CAKI-1 > 100 µM

Cc1ccc(-c2cc[n+]3c(n2)oc2ccccc23)cc1
inactive: MDA-N 31.6 µM | CCRF-CEM 10.3 µM | SK-MEL-2 22.8 µM | SW-620 8.93 µM | COLO 205 12.4 µM | OVCAR-8 21.2 µM | SNB-75 25 µM | UACC-62 24.2 µM | SF-268 43.9 µM | ACHN 28.6 µM | LOX IMVI 35.7 µM | HCT-116 29.8 µM | 786-0 14.7 µM | SR 11 µM | A498 19.1 µM | SK-MEL-28 22.1 µM | CAKI-1 41.5 µM

COc1ccc(OC)c([N+](=O)[O-])c1-c1nc2sc(C)c(C)n2c1/C=N/N=C(N)N
inactive: TK-10 > 100 µM | CCRF-CEM 50.7 µM | SK-MEL-2 21.3 µM | SW-620 66.4 µM | COLO 205 29.9 µM | OVCAR-8 > 100 µM | HT-29 43.4 µM | UACC-62 45.7 µM | SF-268 45.6 µM | ACHN > 100 µM | LOX IMVI 49 µM | HCT-116 > 100 µM | 786-0 > 100 µM | SR 62.4 µM | A498 > 100 µM | PC-3 40.8 µM | SK-MEL-28 54.5 µM | CAKI-1 > 100 µM

CCN(CC)CCNc1ccc2nnn3c4ccccc4c(=O)c1c23
inactive: TK-10 4.39 µM | CCRF-CEM 2.86 µM | SK-MEL-2 6.85 µM | SW-620 1.43 µM | COLO 205 3.55 µM | OVCAR-8 3.15 µM | SNB-75 3.6 µM | HT-29 2.51 µM | UACC-62 5.73 µM | SF-268 4.83 µM | ACHN 3.24 µM | LOX IMVI 2.86 µM | HCT-116 4.44 µM | 786-0 4.3 µM | SR 1.15 µM | A498 11.4 µM | SK-MEL-28 4.65 µM | CAKI-1 3.15 µM
